The record followed here is EP4778522A1, “USE OF PYRROLOPYRIMIDINE COMPOUND AND COMPOSITION THEREOF” (Guangzhou Joyo Pharmatech Co., Ltd., priority 2023, dated 2025).

Assay [1] has as its system imiquimod-induced C3H/HeJ mice alopecia areata model. The assay is described as follows: Imiquimod-induced mouse alopecia areata model: hair growth. The format is in vivo. The conditions noted are these: Baricitinib 10 mg/kg oral by gavage twice a day for one month, Day 30; for Newly grown hair score: score 0-5. The protocol:
• 1) Animals: female C3H/He mice, SPF, aged 6-8 weeks at grouping. The animals were provided by Beijing Viewsolid Biotech. • 2) Reagents, positive drugs and test drugs
After one week of adaptive feeding of C3H/HeJ mice: modeling was performed by applying imiquimod ointment to the neck, 3 times a week. The mice were carefully taken out, and about 0.05 g of 5% imiquimod ointment was dipped with a clean medical cotton swab and then applied evenly to the skin on the neck over a range of about 1.5 cm×1.5 cm. Before each application, the local part was cleaned by normal saline to remove the residual drug in the previous time. The continuous administration time was no longer than 10 weeks. When alopecia areata with an area size > 1 cm×1 cm was formed at the administration part, the administration was stopped, proving that a preparation model was successful. The mice in the normal control group were modeled by using blank ointment (vaseline ointment).
During the period from the first administration to the end of the last administration after the alopecia areata modeling was successful, the alopecia areata part of each mouse was photographed once every 3 days, the photographing distance, angle and magnification times were fixed, and the hair growth of the alopecic areas on the backs of the mice was recorded.
Visual quantification of the alopecia area images was performed using ImageJ software. The hair growth area (a) and hair loss area (b) were calculated. The hair growth rate was counted and analyzed: hair growth rate (%) = (a/b)* 100%. The newly grown hairs at the alopecia areata part of the mice in each group were scored based on the hair growth rate. Table 14 Scoring criteria of newly grown hairs

Assay [2] has the same test system. The assay is described as follows: Imiquimod-induced mouse alopecia areata model: number of hair follicles in skin. The format is in vivo. The conditions noted are these: Baricitinib 10 mg/kg oral by gavage twice a day for one month, skin at alopecia areata part. The procedure: After the animals were anesthetized and euthanized, the complete skin tissue of the alopecic area was cut along the junction between the normal skin of the back of the mouse and the alopecic area and perpendicular to the skin surface. A part of the tissue was taken, conventionally dehydrated and embedded. The remaining tissue was stored in a refrigerator at -80°C for later use.
The embedded skin tissue was cut into 3 µm-thick sections, and then the sections were dewaxed in xylene, hydrated by gradient ethanol, H&E stained, dehydrated, cleared and mounted. The hair follicles in skin tissue sections from each group were microscopically observed and photographed. The mean number of the hair follicles was calculated using Image J software.

Assay [3] deals with monobenzone-induced mouse vitiligo model. The assay is described as follows: Monobenzone-induced mouse vitiligo model: hair depigmentation area scoring. The format is in vivo, C57BL/6 mice. Details: Hair depigmentation area scoring: scale not given here. The procedure: • 1) Animals: C57BL/6 mice, specific pathogen-free (SPF), with equal numbers of females and males. The mice were 6-8 weeks old at grouping, with 10 mice per group. The animals were provided by Charles River Laboratories. • 2) Reagents, positive drugs and test drugs
Monobenzone induction method: after 1 week of adaptive feeding of all the animals, modeling was performed and all black hairs on the back of the mice were removed by a shaver. 10 animals were randomly selected as a normal control group and applied with 50 mg of vaseline once a day; and the remaining 80 animals were used for modeling and applied with 50 mg of 40% monobenzone depigmentation ointment once a day. The applying area of the normal control group and the model group was 2 cm*3 cm of the fixed part of the back, and the modeling was continuously performed for 103 days. In order to prevent the phenomenon that the animals lick the drugs, after the animals were applied with a modeling agent, they needed to be separately placed in an independent cage without padding for a period of time to naturally dry the modeling agent, and then they were placed in a rearing cage for normal rearing. During the modeling process, new hairs grown in the alopecic areas of the backs of the mice were shaved by the shaver and then applied with the drug.
The 40% monobenzone depigmentation ointment was applied every day. After modeling for 53 days, according to a depigmentation area score (see scoring criteria of Table 9), 70 animals successfully modeled in modeling group (score ≥ 2) were randomly divided into 7 groups with 10 mice per group. The mean depigmentation area score of the animals in each group was basically consistent before the administration, and the day of grouping was defined as day 0 of the administration treatment period. Table 8 Grouping and administration regimen
During the whole experiment process, the mice in normal control group (G1) were applied with 50 mg of vaseline once a day; and the mice in each model group (G2-G8) were applied with 50 mg of 40% monobenzone ointment once a day. After modeling for 53 days, the mice were grouped and subjected to drug treatment after grouping consecutively for 50 days. The modeling operation was maintained during the drug intervention period. The mice were applied with the drug twice a day for treatment at an interval of 6 hours or more. […]

For assay [4] the test system is unchanged. The assay is described as follows: Monobenzone-induced mouse vitiligo model: skin pathological analysis of melanin-containing hair follicles. The format is in vivo, C57BL/6 mice. The conditions noted are these: 1.5% ruxolitinib ointment. The protocol: The mice were euthanized within 2-4 hours after the last administration, and approximately 1 cm^2 of the skin in the center of the depilated part of the mice was taken and fixed with 4% paraformaldehyde. The animal skin tissues were fixed with 4% paraformaldehyde, dehydrated, embedded with paraffin, sectioned and then subjected to HE staining. The stained sections were photographed by white light panoramic scanning, histopathological changes of the skin tissues and inflammatory cell infiltration were observed, and the number of melanin-containing hair follicles and/or the proportion of the melanin-containing hair follicles in the skin were quantitatively analyzed. The panoramic scanning files were opened by using CaseViewer software, a picture view with the length of about 3.8 mm was randomly selected, and the pictures were saved. The number of all the hair follicles and the number of the melanin-containing hair follicles in the picture were counted respectively by using ipwin32 software. The proportion of the melanin-containing hair follicles was calculated according to the following formula: Proportion of melanin-containing hair follicles = number of melanin-containing follicles/number of all follicles

The mark [5] stands for this setting: 30 mg topical twice a day for 50 days.

Values joined by “and” are separate entries in the source; they are usually repeats but may differ in a detail not shown here. Equal values may be shown once. Marks after values point to notes of the source that are not given here.

For `CCS(=O)(=O)N1CC(CC#N)(n2cc(-c3ncnc4[nH]ccc34)cn2)C1` [Baricitinib, reference compound], the “Hair growth rate (%)” value in assay [1] (listed as Positive control) was found to be 69.58 ± 3.23 %; in assay [1] (listed as positive drug), 69.58 ± 3.23%. In addition, the “Newly grown hair score” value in assay [1] (listed as Positive control) and in assay [1] (listed as positive drug) was 4.2 ± 0.2 in each case. Besides, the “Mean number of hair follicles” value in assay [2] (listed as Positive control) and in assay [2] (listed as positive drug) was 40 ± 7.36 throughout.
Take `N#CC[C@H](C1CCCC1)n1cc(-c2ncnc3[nH]ccc23)cn1` [ruxolitinib, reference compound]: the “Hair depigmentation area scoring” value is 3.90 in assay [3] (Day 0 (before administration), 1.5% ruxolitinib ointment group); 3.80 ** in assay [3] (Day 10, 1.5% ruxolitinib ointment, 30 mg topical twice a day); 3.70 ** in assay [3] (Day 20, 1.5% ruxolitinib ointment, 30 mg topical twice a day); 3.40 ** in assay [3] (Day 30, 1.5% ruxolitinib ointment, 30 mg topical twice a day); 2.90 ** in assay [3] (Day 35, 1.5% ruxolitinib ointment, 30 mg topical twice a day); 2.60 ** in assay [3] (Day 38, 1.5% ruxolitinib ointment, 30 mg topical twice a day). For the same compound, the “Hair depigmentation area scoring” value in assay [3] (Day 41, 1.5% ruxolitinib ointment, 30 mg topical twice a day) was 2.40 **; in assay [3] (Day 44, 1.5% ruxolitinib ointment, 30 mg topical twice a day), 2.30 **; in assay [3] (Day 47, 1.5% ruxolitinib ointment, 30 mg topical twice a day) it was 2.20 **; in assay [3] (Day 50, 1.5% ruxolitinib ointment, 30 mg topical twice a day) it was 2.20 **. Also, in assay [3] (day 50, 1.5% ruxolitinib ointment, 30 mg (5 mg/cm^2) topical), the “mean value of the reduction rate of the depigmentation area score” value is listed as 56.9%. Moreover, the “number of the melanin-containing hair follicles, times that of the model control group” value in assay [4] is on record as “about 6 times”. Further, the “Number of melanin-containing hair follicles” value in assay [4] (setting [5]) is 41.7±16.7 and 41.7. Moreover, in assay [4] (setting [5]), the “Proportion of melanin-containing hair follicles (%)” value was 29.8 ± 9.9% and 29.8%.
Consider `C=CC[C@@H]1/C=C(\C)C[C@H](C)C[C@H](OC)[C@H]2O[C@@](O)(C(=O)C(=O)N3CCCC[C@H]3C(=O)O[C@H](/C(C)=C/[C@@H]3CC[C@@H](O)[C@H](OC)C3)[C@H](C)[C@@H](O)CC1=O)[C@H](C)C[C@@H]2OC` [tacrolimus, reference compound], for which the “Hair depigmentation area scoring” value in assay [3] (Day 0 (before administration), 0.03% tacrolimus ointment group) worked out at 3.60; in assay [3] (Day 10, 0.03% tacrolimus ointment, 30 mg topical twice a day), 3.50; in assay [3] (Day 20, 0.03% tacrolimus ointment, 30 mg topical twice a day), 3.40; in assay [3] (Day 30, 0.03% tacrolimus ointment, 30 mg topical twice a day) it was 3.40; in assay [3] (Day 35, 0.03% tacrolimus ointment, 30 mg topical twice a day), 2.60; in assay [3] (Day 38, 0.03% tacrolimus ointment, 30 mg topical twice a day), 2.50. Also, the “Hair depigmentation area scoring” value in assay [3] (Day 41, 0.03% tacrolimus ointment, 30 mg topical twice a day) came to 2.30; in assay [3] (Day 44, 0.03% tacrolimus ointment, 30 mg topical twice a day), 2.20; in assay [3] (Day 47, 0.03% tacrolimus ointment, 30 mg topical twice a day) it was 2.20; in assay [3] (Day 50, 0.03% tacrolimus ointment, 30 mg topical twice a day) it was 2.20. The “reduction rate of the depigmentation area score” value in assay [3] (day 50, 0.03% tacrolimus ointment, compared with the model control group) is reported as 56.9%.
